Experimental data taken from US10004701B2, “Methods and compositions for treating infection” (UNIVERSITY OF ROCHESTER, priority 2012, dated 2018).
Structures can show the parent of a compound that is named as a salt. Where two headings read alike, the source gives them in different places.

What was measured:
Experiment in all cases: AK assay 384-well format, Prestwick library screening
[1] = system: E. faecium; format: cell-based, Enterococcus faecium; conditions: 50 μM final drug concentration; for fold induction at 50 µM: Enterococcus faecium, 3 h
[2] = system: E. cloacae; format: cell-based, Enterobacter cloacae; conditions: 50 μM final drug concentration; for fold induction at 50 µM: Enterobacter cloacae, 3 h
[3] = system: E. coli; format: cell-based, Escherichia coli; conditions: 50 μM final drug concentration; for fold induction at 50 µM: Escherichia coli, 3 h
[4] = system: P. aeruginosa; format: cell-based, Pseudomonas aeruginosa; conditions: 50 μM final drug concentration; for fold induction at 50 µM: Pseudomonas aeruginosa, 3 h
[5] = system: A. baumannii strain 98-37-09; format: cell-based, Acinetobacter baumannii; conditions: 50 μM final drug concentration; for fold induction at 50 µM: Acinetobacter baumannii, 983709, 3 h
[6] = system: S. aureus strain USA300-0114; format: cell-based, Staphylococcus aureus; conditions: 50 μM final drug concentration; for fold induction at 50 µM: Staphylococcus aureus, USA300, 3 h
[7] = system: K. pneumoniae; format: cell-based, Klebsiella pneumoniae; conditions: 50 μM final drug concentration; for fold induction at 50 µM: Klebsiella pneumoniae, 3 h
[8] = planktonic, cutoff for positive-scoring molecules 3-fold increase

For `OCCN(CCO)c1nc(N2CCCCC2)c2nc(N(CCO)CCO)nc(N3CCCCC3)c2n1` [Dipyridamole], the fold induction at 50 µM ([1]; planktonic E. faecium, 384-well, cutoff for positive-scoring molecules 3-fold increase, read-out: AK-based Prestwick Library Screening Results: E. faecium (increase in extracellular AK activity)) was 0.9, the fold induction at 50 µM ([2]; planktonic E. cloacae, 384-well, cutoff for positive-scoring molecules 3-fold increase, read-out: AK-based Prestwick Library Screening Results: E. cloacae (increase in extracellular AK activity)) was 1.4 and the fold induction at 50 µM ([3]; planktonic E. coli, 384-well, cutoff for positive-scoring molecules 3-fold increase, read-out: AK-based Prestwick Library Screening Results: E. coli (increase in extracellular AK activity)) was 1.3. The fold induction at 50 µM ([4]; planktonic P. aeruginosa, 384-well, cutoff for positive-scoring molecules 3-fold increase, read-out: AK-based Prestwick Library Screening Results: P. aeruginosa (increase in extracellular AK activity)) was 1.1, the fold induction at 50 µM ([5]; planktonic A. baumannii, 384-well, cutoff for positive-scoring molecules 3-fold increase, read-out: AK-based Prestwick Library Screening Results: A. baumannii (increase in extracellular AK activity)) was 1.2 and the fold induction at 50 µM ([6]; planktonic S. aureus, 384-well, cutoff for positive-scoring molecules 3-fold increase, read-out: AK-based Prestwick Library Screening Results: S. aureus (increase in extracellular AK activity)) was 0.8. It also gave a fold induction at 50 µM ([7]; planktonic K. pneumoniae, 384-well, cutoff for positive-scoring molecules 3-fold increase, read-out: AK-based Prestwick Library Screening Results: K. pneumoniae (increase in extracellular AK activity)) of 0.9.
Molecule `COc1ccc(CN(CCN(C)C)c2ccccn2)cc1` [Pyrilamine maleate] has a fold induction at 50 µM ([1]; planktonic E. faecium, 384-well, […], read-out: AK-based Prestwick Library Screening Results: E. faecium (increase in extracellular AK activity)) of 1.2, a fold induction at 50 µM ([2]; planktonic E. cloacae, 384-well, […], read-out: AK-based Prestwick Library Screening Results: E. cloacae (increase in extracellular AK activity)) of 1.4 and a fold induction at 50 µM ([3]; planktonic E. coli, 384-well, […], read-out: AK-based Prestwick Library Screening Results: E. coli (increase in extracellular AK activity)) of 1.4. It also gave a fold induction at 50 µM ([4]; planktonic P. aeruginosa, 384-well, […], read-out: AK-based Prestwick Library Screening Results: P. aeruginosa (increase in extracellular AK activity)) of 1.1, a fold induction at 50 µM ([5]; planktonic A. baumannii, 384-well, […], read-out: AK-based Prestwick Library Screening Results: A. baumannii (increase in extracellular AK activity)) of 1.1 and a fold induction at 50 µM ([6]; planktonic S. aureus, 384-well, […], read-out: AK-based Prestwick Library Screening Results: S. aureus (increase in extracellular AK activity)) of 1.4. The fold induction at 50 µM ([7]; planktonic K. pneumoniae, 384-well, […], read-out: AK-based Prestwick Library Screening Results: K. pneumoniae (increase in extracellular AK activity)) was 1.
`C[C@H]1[C@H](C)CC[C@]2(C(=O)O)CC[C@]3(C)C(=CC[C@@H]4[C@@]5(C)CC[C@H](O)C(C)(C)[C@@H]5CC[C@]43C)[C@H]12` [Ursolic acid] gave a fold induction at 50 µM ([1]; 384-well format, cutoff for positive-scoring molecules 3-fold increase, read-out: AK-based Prestwick Library Screening Results, E. faecium (increase in extracellular AK activity)) of 2.8, a fold induction at 50 µM ([2]; 384-well format, cutoff for positive-scoring molecules 3-fold increase, read-out: AK-based Prestwick Library Screening Results, E. cloacae (increase in extracellular AK activity)) of 0.5 and a fold induction at 50 µM ([3]; 384-well format, cutoff for positive-scoring molecules 3-fold increase, read-out: AK-based Prestwick Library Screening Results, E. coli (increase in extracellular AK activity)) of 0.4. It also gave a fold induction at 50 µM ([4]; 384-well format, cutoff for positive-scoring molecules 3-fold increase, read-out: AK-based Prestwick Library Screening Results, P. aeruginosa (increase in extracellular AK activity)) of 0.4, a fold induction at 50 µM ([5]; 384-well format, cutoff for positive-scoring molecules 3-fold increase, read-out: AK-based Prestwick Library Screening Results, A. baumannii (increase in extracellular AK activity)) of 0.5 and a fold induction at 50 µM ([6]; 384-well format, cutoff for positive-scoring molecules 3-fold increase, read-out: AK-based Prestwick Library Screening Results, S. aureus (increase in extracellular AK activity)) of 0.1. The fold induction at 50 µM ([7]; 384-well format, cutoff for positive-scoring molecules 3-fold increase, read-out: AK-based Prestwick Library Screening Results, K. pneumoniae (increase in extracellular AK activity)) was 0.4.
With `CC(=O)N(CC(C)C(=O)O)c1c(I)cc(I)c(N)c1I` (stereo not drawn) [locetamic acid] the “AK-based Prestwick Library Screening Results, E. faecium (fold increase in extracellular AK activity)” value [1, 8] was 0.9, the “AK-based Prestwick Library Screening Results, E. cloacae (fold increase in extracellular AK activity)” value [2, 8] was 1.4 and the “AK-based Prestwick Library Screening Results, E. coli (fold increase in extracellular AK activity)” value ([3]; planktonic, […]) was 0.9. For the same molecule, the “AK-based Prestwick Library Screening Results, P. aeruginosa (fold increase in extracellular AK activity)” value [4, 8] was 0.9, the “AK-based Prestwick Library Screening Results, A. baumannii (fold increase in extracellular AK activity)” value [5, 8] was 0.8 and the “AK-based Prestwick Library Screening Results, S. aureus (fold increase in extracellular AK activity)” value [6, 8] was 0.8. The “AK-based Prestwick Library Screening Results, K. pneumoniae (fold increase in extracellular AK activity)” value [7, 8] was 0.8.
Work on `Cc1cc(C)nc(NS(=O)(=O)c2ccc(N)cc2)n1` [Sulfamethazine sodium salt] yielded a fold induction at 50 µM ([1]; cutoff for positive-scoring molecules 3-fold increase, read-out: AK-based Prestwick Library Screening Results, E. faecium (fold increase in extracellular AK activity)) of 1, a fold induction at 50 µM ([2]; cutoff for positive-scoring molecules 3-fold increase, read-out: AK-based Prestwick Library Screening Results, E. cloacae (fold increase in extracellular AK activity)) of 1.4 and a fold induction at 50 µM ([3]; cutoff for positive-scoring molecules 3-fold increase, read-out: AK-based Prestwick Library Screening Results, E. coli (fold increase in extracellular AK activity)) of 1. For the same molecule, the fold induction at 50 µM ([4]; cutoff for positive-scoring molecules 3-fold increase, read-out: AK-based Prestwick Library Screening Results, P. aeruginosa (fold increase in extracellular AK activity)) was 1.1, the fold induction at 50 µM ([5]; cutoff for positive-scoring molecules 3-fold increase, read-out: AK-based Prestwick Library Screening Results, A. baumannii (fold increase in extracellular AK activity)) was 1.6 and the fold induction at 50 µM ([6]; cutoff for positive-scoring molecules 3-fold increase, read-out: AK-based Prestwick Library Screening Results, S. aureus (fold increase in extracellular AK activity)) was 1.4. The fold induction at 50 µM ([7]; cutoff for positive-scoring molecules 3-fold increase, read-out: AK-based Prestwick Library Screening Results, K. pneumoniae (fold increase in extracellular AK activity)) was 1.
`[H]/N=C(\N/C(=N/[H])Nc1ccc(Cl)cc1)NC(C)C` [Proguanil hydrochloride] showed a fold induction at 50 µM ([1]; planktonic E. faecium, positive cutoff 3-fold increase, read-out: AK-based Prestwick library screening result, E. faecium (fold increase in extracellular AK activity)) of 0.8, a fold induction at 50 µM ([2]; planktonic E. cloacae, positive cutoff 3-fold increase, read-out: AK-based Prestwick library screening result, E. cloacae (fold increase in extracellular AK activity)) of 1.1 and a fold induction at 50 µM ([3]; planktonic E. coli, positive cutoff 3-fold increase, read-out: AK-based Prestwick library screening result, E. coli (fold increase in extracellular AK activity)) of 0.9. For the same molecule, the fold induction at 50 µM ([4]; planktonic P. aeruginosa, positive cutoff 3-fold increase, read-out: AK-based Prestwick library screening result, P. aeruginosa (fold increase in extracellular AK activity)) was 0.8, the fold induction at 50 µM ([5]; planktonic A. baumannii, positive cutoff 3-fold increase, read-out: AK-based Prestwick library screening result, A. baumannii (fold increase in extracellular AK activity)) was 0.9 and the fold induction at 50 µM ([6]; planktonic S. aureus, positive cutoff 3-fold increase, read-out: AK-based Prestwick library screening result, S. aureus (fold increase in extracellular AK activity)) was 0.9. The fold induction at 50 µM ([7]; planktonic K. pneumoniae, positive cutoff 3-fold increase, read-out: AK-based Prestwick library screening result, K. pneumoniae (fold increase in extracellular AK activity)) was 0.7.
